Here are results for 17 molecules from patent publication EP0628551A1, “Semicyclic urea derivatives as antihistaminic agents” (SHIONOGI & CO., LTD., priority 1993, dated 1994).

SMILES strings stand for the structures. ≈ marks a conversion by molar mass, not a printed value.

The target in one experiment is T1, H₁ receptor (Mus musculus, UniProt P70174).
T1 construct: A cerebral cortex of a mouse orally administered with Compound I of the present invention is homogenized to prepare a receptor sample; from tissue; host or cells: mouse (Slc-ddY, male) cerebral cortex homogenate after oral dosing
T1 sequence (P70174 whole entry): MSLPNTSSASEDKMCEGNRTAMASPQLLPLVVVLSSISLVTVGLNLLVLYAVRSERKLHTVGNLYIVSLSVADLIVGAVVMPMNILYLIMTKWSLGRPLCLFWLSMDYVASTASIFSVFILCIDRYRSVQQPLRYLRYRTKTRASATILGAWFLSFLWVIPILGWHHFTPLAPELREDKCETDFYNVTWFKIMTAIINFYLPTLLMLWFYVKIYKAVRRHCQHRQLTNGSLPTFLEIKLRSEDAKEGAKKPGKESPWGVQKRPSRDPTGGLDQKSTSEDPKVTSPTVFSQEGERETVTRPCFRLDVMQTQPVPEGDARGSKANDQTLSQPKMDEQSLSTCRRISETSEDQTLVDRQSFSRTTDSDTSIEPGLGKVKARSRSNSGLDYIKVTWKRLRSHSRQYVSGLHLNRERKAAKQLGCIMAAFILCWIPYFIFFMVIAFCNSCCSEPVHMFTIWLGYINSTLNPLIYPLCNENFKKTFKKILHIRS
Put plainly: H1 receptor binding inhibition test ex vivo (migration to the brain, [3H]-pyrilamine binding to cerebral cortex after oral dosing). It counts as in vivo. The conditions noted are these: Slc-ddY male mice, 10 mg/kg orally, cerebral cortex removed 60 minutes after administration, [³H]-pyrilamine 4 nM, lower inhibition = lower migration to brain, read-out: [³H]-labeled pyrilamine binding inhibition ex vivo. The protocol:
The receptor sample is incubated with [³H]-pyrilamine.
Five Slc-ddY male mice were used as one group. First, 10 mg/kg of the compound of the present invention was orally administered to each mouse. The mouse were killed by decapitation 60 minutes after the administration and each cerebral cortex was removed. Each cerebral cortex was frozen on dry ice and kept in a refrigerator at -80°C. Before the experiment, each cerebral cortex was homogenized with about 10 times its volume of 50 mM of Na/K phosphate buffer (pH 7.5). A mixture of each cerebral cortex was further diluted 6 times and used as a receptor sample. A mixture of each receptor sample and [³H]-pyrilamine (4 nM) was incubated at 25°C for 30 minutes. The reaction was stopped by dilution and filtration. The radioactivity of [³H]-pyrilamine bound to the receptor sample on the filter paper was measured by a liquid scintillation counter. The specific binding of [³H]-pyrilamine to the receptor sample was obtained by subtracting the non-specific binding from the total bindings. The non-specific binding was obtained under the conditions of containing 10 µM of non-radioactive pyrilamine. The amount of protein was measured by DC protein assay (Biolad), and the inhibition of the compound of the present invention to the specific binding of [³H]-pyrilamine per 1 mg of protein was measured. […]

Another experiment concerns ileum of a guinea pig. In words: Evaluation of antihistaminic effects in vitro (inhibition of histamine-induced contraction of isolated ileum, Magnus method). It counts as cell-based. The conditions noted are these: Cavia porcellus; guinea pig ileum in saline solution at 37°C; histamine diphosphate 0.5 µg/ml; subject compound 0.03 to 10 µg/ml; 50% inhibition of submaximal contraction; read-out: Antihistaminic effect IC50. The protocol: The effects of Compound I of the present invention and salts thereof as an antiallergic agents can be evaluated by various methods for measuring antiallergic activity, for example by conducting the following tests (1) and (2). • (1) Antihistaminic effect evaluation test in vitro Histamine diphosphate and Compound I of the present invention or salts thereof are added to an ileum of a guinea pig in a saline solution. The concentration (at which the contraction of the ileum by histamine is inhibited by 50%) of Compound I of the present invention is measured. • (2) Histamine₁ receptor (H₁ receptor) in vitro binding inhibition test As a standard material which binds to a H₁ receptor, pyrilamine is used. Compound I of the present invention is added with varying concentrations to a mixture containing a receptor sample prepared by homogenizing a cerebral cortex of a rat and [³H]-pyrilamine, and incubated. From radioactivity of [³H]-pyrilamine which is bound to the receptor sample, the concentration (IC₅₀) of Compound I inhibiting the specific binding of [³H]-pyrilamine to the receptor sample is measured to obtain an inhibition constant (Ki). Compound I of the present invention has a lower degree of migration to brain. Thus, Compound I has less side effects on the central nervous system such as sleepiness, because of its less frequent binding to the H₁ recepter in brain. The extent of migration of Compound I or salts thereof to the brain can be obtained by the following test method 3. • (3) H₁ receptor binding inhibition test ex vivo A cerebral cortex of a mouse orally administered with Compound I of the present invention is homogenized to prepare a receptor sample. The receptor sample is incubated with [³H]-pyrilamine. From the radioactivity of [³H]-pyrilamine bound to the receptor sample, the inhibition of Compound I with respect to the specific biding of pyrilamine to the receptor sample is obtained.
The following experiments were conducted in accordance with the method of R. Magnus (Arch. F.D. Ges. Physiol., 102: 123-151, 1904). Ileums derived from guinea pigs were respectively soaked in a saline solution at 37°C. Then, histamine diphosphate and a subject compound which had been obtained in the Examples shown in Table 1 were added to each saline solution so that the concentrations of histamine diphosphate and the subject compound are 0.5 µg/ml and 0.03 to 10 µg/ml, respectively. The ileum generally contracts by histamine; however, in the case where the subject compound is present, the antagonistic effect of the subject compound on histamine inhibits the contraction of the ileum. The contraction degree of the ileum was measured at each concentration of the added subject compound, and the concentration IC₅₀ of the subject compound which inhibited 50% submaximal contraction of the ileum by histamine was obtained. The submaximal contraction was obtained in the case where the subject compound was not added. […] When the value of IC₅₀ is lower, the subject cmpound has stronger antihistaminic effects.

By inhibition is commonly meant the percentage by which the read-out fell short of the control. What is called IC50 is the concentration that gives 50% inhibition.

On to `O=C(NCCCN1CCC(=C(c2ccccc2)c2ccccc2)CC1)N1CCN(c2ncccn2)CC1` [Example 5], for which the inhibition at 10 mg/kg at H₁ receptor turned out to be 0%. For the same molecule, in the experiment on ileum of a guinea pig, the concentration for half-maximal inhibition (IC50) was 0.442 µg/mL (≈ 0.89 µM).
For `O=C(NCCCN1CCC(OC(c2ccccc2)c2ccccc2)CC1)N1CCN(c2ncccn2)CC1` [Example 15], in that order: 6% and 0.0595 µg/mL (≈ 0.116 µM).
For `O=C(NCCN1CCN(C(c2ccccc2)c2ccccc2)CC1)N1CCN(c2ccccn2)CC1` [Example 39], in that order: 4% and 0.119 µg/mL (≈ 0.246 µM).
For the molecule `O=C(NCCCN1CCN(C(c2ccc(F)cc2)c2ccc(F)cc2)CC1)N1CCN(c2ccccn2)CC1` [Example 43], at H₁ receptor, the inhibition at 10 mg/kg worked out at 14%. Moreover, in the experiment with ileum of a guinea pig, the IC50 was 0.216 µg/mL (≈ 0.404 µM).
For the molecule `O=C(NCCCN1CCC(OC(c2ccccc2)c2ccccc2)CC1)N1CCN(C(c2ccccc2)c2ccccc2)CC1` [Example 45], the inhibition at 10 mg/kg on H₁ receptor was found to be 6%. Moreover, the IC50 in the experiment with ileum of a guinea pig came out at 0.621 µg/mL (≈ 1.03 µM).
As for `O=C1CSCCN1C(=O)NCCCN1CCC(OC(c2ccc(F)cc2)c2ccc(F)cc2)CC1` [Example 49], the inhibition at 10 mg/kg at H₁ receptor is 9%. Moreover, in the experiment on ileum of a guinea pig, the 50% inhibitory concentration (IC50) was determined as 0.0244 µg/mL (≈ 0.0484 µM).
The like results for `O=C(NCCCN1CCC(OC(c2ccc(F)cc2)c2ccc(F)cc2)CC1)N1CCN(c2ccccn2)CC1` [Example 50] were, in that order, 2% and 0.0817 µg/mL (≈ 0.149 µM).
For `CCOC(=O)N1CCN(C(=O)NCCCN2CCC(OC(c3ccc(F)cc3)c3ccc(F)cc3)CC2)CC1` [Example 51], in that order: 0% and 0.427 µg/mL (≈ 0.784 µM).
Take `O=C(NCCN1CCC(=C(c2ccccc2)c2ccccc2)CC1)N1CCN(c2ccccn2)CC1` [Example 53]: on H₁ receptor, the inhibition at 10 mg/kg is 0%. Besides, the IC50 with ileum of a guinea pig was 1.76 µg/mL (≈ 3.66 µM).
The like results for `O=C(NCCCN1CCC(OC(c2ccccc2)c2ccccc2)CC1)N1CCN(S(=O)(=O)c2cccc3cccnc23)CC1` [Example 55] were, in that order, 0% and 1.14 µg/mL (≈ 1.82 µM).
On to `O=C(NCCCN1CCC(=C(c2ccccc2)c2ccccc2)CC1)N1CCN(S(=O)(=O)c2cccc3cccnc23)CC1` [Example 56], for which the inhibition at 10 mg/kg on H₁ receptor was 0%. In the experiment on ileum of a guinea pig, the IC50 turned out to be 1.38 µg/mL (≈ 2.26 µM).
In the case of `O=C(NCCCN1CCC(OC(c2ccccc2)c2ccccc2)CC1)N1CCN(S(=O)(=O)c2cccnc2)CC1` [Example 61], the inhibition at 10 mg/kg on H₁ receptor came to 6%. Moreover, the IC50 in the experiment with ileum of a guinea pig is 0.196 µg/mL (≈ 0.339 µM).
The like results for `CC(C)(C)OC(=O)N1CCN(C(=O)NCCCN2CCC(OC(c3ccccc3)c3ccccc3)CC2)CC1` [Example 70] were, in that order, 2% and 0.0889 µg/mL (≈ 0.166 µM).
For `CC(C)(C)OC(=O)N1CCN(C(=O)NCCCN2CCC(=C(c3ccccc3)c3ccccc3)CC2)CC1` [Example 71], in that order: 7% and 1.12 µg/mL (≈ 2.16 µM).
For `O=C1CCCN1C(=O)NCCCCCN1CCN(C(c2ccccc2)c2ccccc2)CC1` [Example 79], the inhibition at 10 mg/kg on H₁ receptor is 5%. In the experiment with ileum of a guinea pig, the IC50 came to 0.042 µg/mL (≈ 0.0936 µM).
The like results for `O=c1[nH]c2ccccc2n1CCCN1CCN(C(c2ccccc2)c2ccccc2)CC1` [Oxatoamide, reference compound] were, in that order, 17% and 1 µg/mL (≈ 2.34 µM).
On to `CC(C)(C)c1ccc(C(O)CCCN2CCC(C(O)(c3ccccc3)c3ccccc3)CC2)cc1` (stereo not drawn) [Terfenadine, reference compound], for which the IC50 with ileum of a guinea pig was 22.4 µg/mL (≈ 47.4 µM).
